Laboratory results from US11078205B2, “Selective inhibitors of protein arginine methlytransferase 5 (PRMT5)” (Prelude Therapeutics, Incorporated, priority 2017, dated 2021).
Values after ≈ are worked out from the molar mass of the structure shown. Each block holds one compound with its values, some of them ahead of it.

Columns and labels:
physchem = details: 25 °C, thermodynamic from solid
sDMA in tumor samples = experiment: sDMA levels in Granta-519 xenograft tumor samples by western blot; format: in vivo, mouse; details: 12 hours after last dosing
Procedure: Granta-519 cells was maintained in DMEM medium supplemented with 10% fetal bovine serum and 2 mM L-Glutamine at 37° C. in an atmosphere of 5% CO2 in air. Cells in exponential growth phase were harvested and 1×10^7 cells in 0.1 mL of PBS with Matrigel (1:1) were injected subcutaneously at the right lower flank region of each mouse for tumor development. The treatments were started when the mean tumor size reaches approximately 300-400 mm^3. […] Example 47 or vehicle (0.5% Na CMC+0.5% Tween80, suspension) were administered orally (QD for Example 47, QD for vehicle) at a dose of 30 mg/kg and 50 mg/kg for 19 and 16 days, respectively. Body weights and tumor size were measured every 3 to 4 days after randomization. Animals were euthanized 12 hours after last dosing, and blood and tumor samples were collected for analysis.
To measure sDMA levels in tumor samples, tumors from each mouse were weighted and homogenized in RIPA buffer supplemented with protease inhibitor (cOmplete™, EDTA-free Protease Inhibitor Cocktail, Roche). Lysate were centrifuged at 14,000 rpm for 30 min at 4° C. to remove debris. Total protein concentrations of lysate were determined by BCA assay (ThermoFisher Scientific, Catalog #: 23225). Equal amount of total proteins from each tumor were separated on SDS-PAGE gel, and sDMA levels were determined by WB as described previously.

PRMT5/MEP50 complex = PRMT5/MEP50 complex (Homo sapiens (Human), UniProt O14744); experiment: Biochemical assay: PRMT5/MEP50 methylation of histone H2A with 3H-SAM, filter plate scintillation; details: histone H2A 5 μM, SAM 1 μM, PRMT5/MEP50 5 nM
Procedure: Biochemical Assay Protocol
Compounds were solubilized and 3-fold diluted in 100% DMSO. […] Standard reactions were performed in a total volume of 50 μl in assay buffer, with histone H2A (5 μM final) as substrate. To this was added the PRMT5/MEP50 complex diluted to provide a final assay concentration of 5 nM and the compounds were allowed to preincubate for 15 to 20 minutes at room temperature. The reaction was initiated by adding S-[3H-methyl]-adenosyl-L-methionine (PerkinElmer) to final concentration of 1 μM. Following a 60 minutes incubation at 30° C., the reaction was stopped by adding 100 μL of 20% TCA. Each reaction was spotted onto filter plate (Multi Screen FB Filter Plate, Millipore), and washed 5 times with PBS buffer, Scintillation fluid was added to the filter plate and read in a scintillation counter. IC50 values were determined by fitting the data to the standard 4 parameters with Hill Slope using GraphPad Prism software.

Chain of PRMT5/MEP50 complex (O14744 whole entry): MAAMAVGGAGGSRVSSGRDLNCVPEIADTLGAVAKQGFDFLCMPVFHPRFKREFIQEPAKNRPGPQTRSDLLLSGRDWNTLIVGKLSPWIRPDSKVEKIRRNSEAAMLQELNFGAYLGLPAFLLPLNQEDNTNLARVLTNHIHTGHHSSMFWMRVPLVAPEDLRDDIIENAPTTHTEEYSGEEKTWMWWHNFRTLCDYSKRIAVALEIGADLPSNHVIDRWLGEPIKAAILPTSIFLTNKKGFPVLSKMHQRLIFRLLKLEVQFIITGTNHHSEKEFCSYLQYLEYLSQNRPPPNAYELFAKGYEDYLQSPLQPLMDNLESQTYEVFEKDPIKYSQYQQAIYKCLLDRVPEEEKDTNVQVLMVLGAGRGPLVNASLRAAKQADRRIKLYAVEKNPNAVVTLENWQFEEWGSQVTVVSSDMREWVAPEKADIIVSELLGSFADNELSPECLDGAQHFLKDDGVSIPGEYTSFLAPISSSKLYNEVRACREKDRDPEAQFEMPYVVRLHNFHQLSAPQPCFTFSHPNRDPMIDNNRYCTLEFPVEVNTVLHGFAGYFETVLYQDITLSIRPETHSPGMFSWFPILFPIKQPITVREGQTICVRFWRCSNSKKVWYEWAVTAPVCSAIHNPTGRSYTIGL
Chain of PRMT5/MEP50 complex (Q9BQA1 whole entry partner): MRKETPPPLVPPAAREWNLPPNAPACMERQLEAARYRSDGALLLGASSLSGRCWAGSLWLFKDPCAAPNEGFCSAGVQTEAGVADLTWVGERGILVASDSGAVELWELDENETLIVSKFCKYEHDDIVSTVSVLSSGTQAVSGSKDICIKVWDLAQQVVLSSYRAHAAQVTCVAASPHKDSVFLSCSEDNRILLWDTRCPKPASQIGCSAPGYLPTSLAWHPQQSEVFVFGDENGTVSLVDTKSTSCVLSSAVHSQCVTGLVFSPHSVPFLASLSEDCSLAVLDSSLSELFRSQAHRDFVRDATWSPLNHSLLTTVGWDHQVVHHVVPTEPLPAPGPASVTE

- solubility at 4 h (physchem; fassif): < 2 µg/mL
Compound: O=C1C(O)=C([C@H]2CC[C@H](c3ccc(Cl)cc3)CC2)C(=O)c2ccccc21 [Atovaquone]

Compound: C[C@@]1(O)[C@@H]([C@H](O)c2ccc(Cl)c(Cl)c2)O[C@@H](n2ccc3c(N)ncnc32)[C@@H]1O [Example 47, (2R,3S,4R,5R)-5-(4-amino-7H-pyrrolo[2,3-d]pyrimidin-7-yl)-2-((R)-(3,4-dichlorophenyl)(hydroxy)methyl)-3-methyltetrahydrofuran-3,4-diol]
- inhibition of sDMA (sDMA in tumor samples; 30 mg/kg orally QD): > 90%
- sDMA level in tumor (sDMA in tumor samples; 50 mg/kg orally QD): no detectable sDMA

- IC50 (PRMT5/MEP50 complex): 707 nM
Compound: C[C@@]1(O)[C@@H]([C@@H](O)c2ccc(Cl)c(Cl)c2)O[C@@H](n2ccc3c(N)ncnc32)[C@@H]1O [Example 66, (2R,3S,4R,5R)-5-(4-amino-7H-pyrrolo[2,3-d]pyrimidin-7-yl)-2-((S)-(3,4-dichlorophenyl)(hydroxy)methyl)-3-methyltetrahydrofuran-3,4-diol]

- solubility at 4 h (physchem): 10 to 25 µg/mL (≈ 32.4 to 81.1 µM)
Compound: CC(=O)CC(c1ccccc1)c1c(O)c2ccccc2oc1=O (centres unmarked) [Warfarin]
